Measured values as given in PubChem BioAssay (NCI).
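Each compound was tested at five concentrations against cells in 96-well plates for 48 hours. Here, GI50 denotes the concentration required for 50% inhibition of growth. At the TGI there is no net growth.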

Legend:
Experiment in all cases: growth of human tumour cells (NCI), 48 h
[1] = tested on: CAKI-1 renal
[2] = tested on: HS 578T breast
[3] = tested on: K-562 leukemia
[4] = tested on: MDA-MB-231 breast
[5] = tested on: MDA-MB-435
[6] = tested on: SF-539 CNS
[7] = tested on: UACC-257 melanoma
[8] = tested on: MALME-3M melanoma
[9] = tested on: OVCAR-5 ovarian
[10] = tested on: SR leukemia

Compound | TGI [1] [µM] | TGI [2] [µM] | TGI [3] [µM] | TGI [4] [µM] | TGI [5] [µM] | TGI [6] [µM] | TGI [7] [µM] | GI50 [1] [µM] | GI50 [2] [µM] | GI50 [3] [µM] | GI50 [8] [µM] | TGI [8] [µM] | GI50 [4] [µM] | GI50 [5] [µM] | GI50 [9] [µM] | TGI [9] [µM] | GI50 [6] [µM] | GI50 [7] [µM] | TGI [10] [µM]
O=C(c1ccc2ccccc2c1O)N1CCCCC1 | > 100 | > 100 | 75.3 | > 100 | > 100 | > 100 | > 100 |  |  |  |  |  |  |  |  |  |  |  | 
C=CC(=O)Nc1ccc(Nc2nccc(-c3ccc(N4CCCC4)c(C#N)c3)n2)cc1 | > 25 | > 25 | > 25 | > 25 | > 25 | > 25 | 17 | 4.6 | 5.15 | 5.94 | 5.06 | 20 | > 25 | 7.09 | > 25 | > 25 | 6.88 | 5.37 | 
O=C(O)CN(c1ccccc1)S(=O)(=O)c1ccc(NC(=O)c2ccccc2)cc1 | > 100 |  | > 100 |  |  | > 100 | > 100 |  |  |  |  | > 100 |  |  |  | > 100 |  |  | 
CCCCCCCCCCCOC(=S)NC(C)C | 39.9 |  | 46.4 |  |  | 35.4 | 42.6 |  |  |  |  | 49.5 |  |  |  | 52.5 |  |  | 44.3
N=C(c1ccccc1)N(c1ccccc1)c1ccccc1 | > 100 |  |  |  |  | > 100 | > 100 |  |  |  |  | 94.6 |  |  |  | > 100 |  |  | > 100
Cc1ccc(C(=O)O/N=C2/CCCC/C2=C\c2ccccc2)cc1 | > 100 |  | 38.6 |  |  | > 100 | > 100 |  |  |  |  | > 100 |  |  |  | > 100 |  |  | > 100
O=C(CC1=Nc2nnc(-c3nnc4n3C(=O)C(CC(=O)c3cccnc3)=N4)n2C1=O)c1cccnc1 | > 100 |  | > 100 |  |  | > 100 | > 100 |  |  |  |  | > 100 |  |  |  | > 100 |  |  | 
CCC1(C)NN=c2s/c(=C/c3ccc(OC)cc3)c(=O)n2N1 (configuration not stated) | > 100 |  | > 100 |  |  | > 100 |  |  |  |  |  | > 100 |  |  |  | > 100 |  |  | > 100
Cn1cc(-c2nonc2-c2c[nH]c3ccccc23)c2ccccc21 | 15 | 2.32 | > 36.9 | 3.23 | 0.494 | 1.07 | 20.5 | 0.413 | 0.298 | 0.223 | 0.635 | 17.7 | 0.489 | 0.182 | 1.24 | 16.4 | 0.276 | 0.918 | 
CCOc1ccccc1NC(=O)CCC(=O)OC | > 100 |  | > 87.8 |  |  |  | > 100 |  |  |  |  | > 100 |  |  |  | > 100 |  |  | > 100
CN1C(=O)c2c(ccc3c2OCO3)C2C(O)Cc3cc4c(cc3C21)OCO4 (configuration not stated) | 81.7 | > 100 | 60.2 | 18.3 |  | 16.8 |  |  |  |  |  |  |  |  |  | > 100 |  |  | 
NNC(=S)N/N=C(\CCCC(=O)NCCc1ccccc1)CC(=O)c1ccccc1 |  |  |  |  |  | > 100 | > 100 |  |  |  |  | > 100 |  |  |  | > 100 |  |  | > 100
CC1CC2C3CC(F)C4=CC(=O)C=CC4(C)C3(F)C(O)CC2(C)C1(O)C(=O)COC(=O)C(C)(C)C (configuration not stated) | > 100 |  | > 100 |  |  | > 100 | > 100 |  |  |  |  | > 100 |  |  |  | > 100 |  |  | > 100
CC1=C([Se]CC(OC(=O)[C@@H](CSSC(C)(C)C)NC(=O)OC(C)(C)C)C(=O)NC(C)(C)C)C(=O)c2ccccc2C1=O (some centres not stated) | 3.02 | 2.69 | 2.62 | 2.76 | 3 | 2.74 |  | 1.66 | 1.31 | 1.28 | 1.18 | 2.41 | 1.45 | 1.64 | 1.73 | 3.24 | 1.43 |  | 
O=C(c1ccccc1)c1c(NCC(O)CN2CCCC2)n(Cc2ccccc2)c(=O)n(Cc2ccccc2)c1=O (configuration not stated) | 59 | 37.8 | 99.1 | 29.6 | 32.8 | 33.9 | 42.3 | 24.3 | 16.2 | 23.9 |  |  | 15.3 | 17.4 | 29.7 | 82 | 19.6 | 21 | 
O=C(O)c1ccccc1Cc1ccco1 | > 100 |  | > 100 |  |  | > 100 | > 100 |  |  |  |  | > 100 |  |  |  | > 100 |  |  | > 100
O=C1OC(=O)c2c1c(-c1ccccc1)cn2-c1ccc(Cl)cc1 |  |  | > 100 |  |  | > 100 | > 100 |  |  |  |  | > 100 |  |  |  | > 100 |  |  | > 100
COc1ccc(/C(=N/NC(N)=O)C2(O)C(=O)Nc3ccc([N+](=O)[O-])cc32)cc1 (configuration not stated) | 57.7 |  | 58.8 |  |  | 31.3 | 39.4 |  |  |  |  | > 10 |  |  |  | 81.2 |  |  | 47.1
Nc1nc(CCC(=O)Nc2cccc(C(F)(F)F)c2)cc(-c2cccc3ccccc23)n1 | > 100 |  | > 100 |  |  | > 100 | > 100 |  |  |  |  | > 100 |  |  |  | > 100 |  |  | > 100
N#C/C(=C\c1ccccc1O)C(N)=O | > 100 |  | > 100 |  |  | > 100 | > 100 |  |  |  |  | > 100 |  |  |  | > 100 |  |  | 
CCOc1ccc(NC(=O)CC2SC(=Nc3ccc(Cl)cc3)NC2=O)cc1 (configuration not stated) | 48.8 |  | 76.4 |  |  | > 100 | > 100 |  |  |  |  | > 100 |  |  |  | > 100 |  |  | 
CC[P+](C)(Cc1ccccc1)c1ccccc1 (configuration not stated) |  |  | > 100 |  |  | > 100 | > 100 |  |  |  |  | > 100 |  |  |  | > 100 |  |  | > 100
c1ccc(SC2(Sc3ccccc3)CCCC2)cc1 | > 100 |  | > 100 |  |  | > 100 | > 100 |  |  |  |  |  |  |  |  |  |  |  | > 100
